According to patent US8889696B2, “Substituted pyrido[2,3-d]pyrimidin-7(8H)-ones and therapeutic uses thereof” (Temple University—Of The Commonwealth System Of Higher …, priority 2009, dated 2014):

Assays:
DU145 (prostate cancer) = experiment: Effect on tumor cell lines (Latham assay), DU145; assay type: cell-based; conditions: Homo sapiens, DU-145; DU145 cells, examined 96 hours after treatment; read-out: Potencies (IC50) DU 145
Protocol: (§1) The plated cells were treated 24 hours later with a compound of the invention dissolved in DMSO at multiple concentrations ranging from 0.01 μM to 100 μM. […] When necessary, the total number of viable cells was determined by trypsinizing the wells and counting the number of viable cells, as determined by trypan blue exclusion, using a hemacytometer.

[1] = test system: hMSC (human marrow stem cell); experiment: Normal cell killing, hMSC; assay type: cell-based; conditions: concentration 5-fold higher than a concentration that resulted in tumor cell killing
Protocol: (§2) The effect of the compounds of the invention on tumor cells was determined by the assay described by Latham et al., Oncogene 12:827-837 (1996). Tumor cells K562 (chronic myelogenous leukemia; leukemia cell line +ve for Bcr-Abl) or DU145 (prostate cancer) were plated in 12-well dishes at a cell density of 2.5×10^4 cells well. The plated cells were treated 24 hours later with a compound of the invention dissolved in DMSO at multiple concentrations ranging from 0.01 μM to 100 μM. The plates were examined 96 hours later under an inverted microscope, Olympus CK-2 using an 10× objective, and compound activity was noted by physical observation. When necessary, the total number of viable cells was determined by trypsinizing the wells and counting the number of viable cells, as determined by trypan blue exclusion, using a hemacytometer.
(§3) Utilizing a similar procedure, the compounds of Example 12 and Example 40 were tested on two normal cell lines: HFL (human fibroblast) and hMSC (human marrow stem cell).

[2] = test system: K562 (chronic myelogenous leukemia); experiment: Effect on tumor cell lines (Latham assay), K562; assay type: cell-based; conditions: Homo sapiens; K562 cells, examined 96 hours after treatment; read-out: Potencies (IC50) K 562
Protocol: as §1

HFL (human fibroblast) = experiment: Normal cell killing, HFL; assay type: cell-based; conditions: concentration 5-fold higher than a concentration that resulted in tumor cell killing
Protocol: as §2, §3

recombinant Plk3 = recombinant Plk3 (Homo sapiens (Human), UniProt Q9H4B4); experiment: Plk kinase inhibition assay (32P-ATP, casein); assay type: biochemical; conditions: 5 μM ATP, FIG. 1
Sequence of recombinant Plk3 (Q9H4B4 whole entry): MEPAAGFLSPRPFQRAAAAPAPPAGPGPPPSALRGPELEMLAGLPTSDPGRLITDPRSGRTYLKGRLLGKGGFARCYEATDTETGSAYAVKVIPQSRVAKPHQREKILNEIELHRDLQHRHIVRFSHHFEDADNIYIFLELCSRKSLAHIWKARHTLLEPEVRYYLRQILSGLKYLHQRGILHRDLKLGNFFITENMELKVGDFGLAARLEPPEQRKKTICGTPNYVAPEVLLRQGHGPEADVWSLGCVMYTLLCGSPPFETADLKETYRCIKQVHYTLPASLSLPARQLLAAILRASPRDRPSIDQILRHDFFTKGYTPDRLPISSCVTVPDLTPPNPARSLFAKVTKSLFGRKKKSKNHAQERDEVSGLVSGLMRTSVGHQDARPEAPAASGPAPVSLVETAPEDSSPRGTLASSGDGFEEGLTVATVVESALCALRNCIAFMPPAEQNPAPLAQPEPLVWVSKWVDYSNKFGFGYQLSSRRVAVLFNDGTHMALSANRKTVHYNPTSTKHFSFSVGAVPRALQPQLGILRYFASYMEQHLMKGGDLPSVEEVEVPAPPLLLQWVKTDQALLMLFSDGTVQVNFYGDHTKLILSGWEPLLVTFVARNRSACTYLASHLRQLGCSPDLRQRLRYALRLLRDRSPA
Protocol: (§4) Ten ng of recombinant Plk1, Plk2, Plk3 or Plk4 kinase were incubated with the indicated concentrations of compound for 30 minutes at room temperature. Kinase reactions were started by the addition of substrate mix (5 μM ATP, 10 μCi γ^32P-ATP, 1 μg α-casein, 10 mM MgCl2) for 15 minutes at 30° C. Reactions were stopped by 3% phosphoric acid, spotted on PE30 filtermat, washed, dried and subjected to scintillation counting. Data is plotted (after background subtraction) using GraphPad Prism4 software as a non-linear regression plot with variable slope to obtain IC50 values.
as §4, with “Kinase” for “Ten ng of recombinant Plk1, Plk2, Plk3 or Plk4 kinase were incubated with the indicated concentrations of compound for 30 minutes at room temperature. Kinase”

PLK2 [3] = target: T1, PLK2 (Homo sapiens (Human), UniProt Q9NYY3); experiment: Plk kinase inhibition assay (32P-ATP, casein); assay type: biochemical; conditions: 5 μM ATP, FIG. 1
T1 sequence (Q9NYY3 whole entry): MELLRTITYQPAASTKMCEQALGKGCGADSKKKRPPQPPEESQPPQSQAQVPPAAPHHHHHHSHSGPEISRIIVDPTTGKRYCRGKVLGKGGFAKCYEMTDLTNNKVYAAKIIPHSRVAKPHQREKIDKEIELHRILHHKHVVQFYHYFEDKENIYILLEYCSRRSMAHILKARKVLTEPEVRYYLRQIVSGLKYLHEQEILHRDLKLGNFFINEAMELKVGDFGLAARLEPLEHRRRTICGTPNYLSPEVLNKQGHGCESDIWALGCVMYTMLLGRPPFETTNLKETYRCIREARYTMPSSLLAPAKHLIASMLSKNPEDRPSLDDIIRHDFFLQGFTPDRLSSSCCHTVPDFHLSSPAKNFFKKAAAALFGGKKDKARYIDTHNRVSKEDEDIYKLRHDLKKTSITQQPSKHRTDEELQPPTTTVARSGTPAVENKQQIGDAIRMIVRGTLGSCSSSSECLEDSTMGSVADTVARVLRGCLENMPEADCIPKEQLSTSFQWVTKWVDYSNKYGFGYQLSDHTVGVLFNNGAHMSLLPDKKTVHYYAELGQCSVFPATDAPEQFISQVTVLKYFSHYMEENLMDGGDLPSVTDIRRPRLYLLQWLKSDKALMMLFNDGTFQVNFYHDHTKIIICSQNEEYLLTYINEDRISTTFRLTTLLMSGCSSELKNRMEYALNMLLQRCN
Protocol: as §4
as §4, with “Kinase” for “Ten ng of recombinant Plk1, Plk2, Plk3 or Plk4 kinase were incubated with the indicated concentrations of compound for 30 minutes at room temperature. Kinase”

recombinant Plk1 = recombinant Plk1 (Homo sapiens (Human), UniProt P53350)
Sequence of recombinant Plk1 (P53350 whole entry): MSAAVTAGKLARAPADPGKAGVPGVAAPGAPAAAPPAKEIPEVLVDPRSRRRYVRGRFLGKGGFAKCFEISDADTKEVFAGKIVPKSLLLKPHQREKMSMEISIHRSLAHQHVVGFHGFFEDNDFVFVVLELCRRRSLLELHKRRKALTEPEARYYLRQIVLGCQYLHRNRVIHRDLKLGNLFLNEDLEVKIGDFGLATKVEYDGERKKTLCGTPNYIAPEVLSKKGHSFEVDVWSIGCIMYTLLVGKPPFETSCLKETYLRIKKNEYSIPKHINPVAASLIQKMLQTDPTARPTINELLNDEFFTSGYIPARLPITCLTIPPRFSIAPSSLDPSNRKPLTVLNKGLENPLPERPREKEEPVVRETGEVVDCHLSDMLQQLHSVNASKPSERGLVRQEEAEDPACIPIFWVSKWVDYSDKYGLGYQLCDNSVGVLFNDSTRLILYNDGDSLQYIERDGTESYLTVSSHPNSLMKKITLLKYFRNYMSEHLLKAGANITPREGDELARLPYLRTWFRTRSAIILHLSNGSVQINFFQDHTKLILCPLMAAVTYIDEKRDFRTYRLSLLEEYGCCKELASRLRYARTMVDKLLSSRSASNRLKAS

CD-1 female mice = experiment: Toxicity study in mice; assay type: in vivo
Protocol: . DMSO was used as a placebo. Three CD-1 female mice were used per group. Drugs were administered intraperitoneally at 100 mg/kg. Viability, signs of toxicity and body weight were monitored over the next 7 days. […]. […] Comparative body weight studies could not be carried out for this compound due to the early death of animals. These observations agree with the known toxicity of BI-2536. […]. Following this treatment, 100% survival for >10 days after injection was observed. […]

WNK2 = WNK2 (Homo sapiens (Human), UniProt Q9Y3S1); experiment: Kinase profiling; assay type: biochemical; conditions: 10 μM ATP
PBK/TOPK = PBK/TOPK (Homo sapiens (Human), UniProt Q96KB5); experiment: Kinase profiling; assay type: biochemical; conditions: 10 μM ATP
Sequence of PBK/TOPK (Q96KB5 whole entry): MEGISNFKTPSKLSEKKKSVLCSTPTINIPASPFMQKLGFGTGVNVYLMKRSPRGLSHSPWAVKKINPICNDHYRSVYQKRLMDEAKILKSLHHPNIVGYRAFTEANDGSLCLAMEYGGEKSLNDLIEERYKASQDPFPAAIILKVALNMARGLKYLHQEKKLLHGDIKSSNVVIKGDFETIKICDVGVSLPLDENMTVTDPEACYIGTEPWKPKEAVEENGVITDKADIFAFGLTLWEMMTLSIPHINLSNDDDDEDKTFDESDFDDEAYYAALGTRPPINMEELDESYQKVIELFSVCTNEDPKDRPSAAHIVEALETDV

FLT3 (D835Y) = FLT3 (D835Y) (Homo sapiens (Human), UniProt P36888, D835Y); experiment: Kinase profiling; assay type: biochemical; conditions: 10 μM ATP
FGFR3 = FGFR3 (Homo sapiens (Human), UniProt P22607); experiment: Kinase profiling; assay type: biochemical; conditions: 10 μM ATP
Sequence of FGFR3 (P22607 23-806): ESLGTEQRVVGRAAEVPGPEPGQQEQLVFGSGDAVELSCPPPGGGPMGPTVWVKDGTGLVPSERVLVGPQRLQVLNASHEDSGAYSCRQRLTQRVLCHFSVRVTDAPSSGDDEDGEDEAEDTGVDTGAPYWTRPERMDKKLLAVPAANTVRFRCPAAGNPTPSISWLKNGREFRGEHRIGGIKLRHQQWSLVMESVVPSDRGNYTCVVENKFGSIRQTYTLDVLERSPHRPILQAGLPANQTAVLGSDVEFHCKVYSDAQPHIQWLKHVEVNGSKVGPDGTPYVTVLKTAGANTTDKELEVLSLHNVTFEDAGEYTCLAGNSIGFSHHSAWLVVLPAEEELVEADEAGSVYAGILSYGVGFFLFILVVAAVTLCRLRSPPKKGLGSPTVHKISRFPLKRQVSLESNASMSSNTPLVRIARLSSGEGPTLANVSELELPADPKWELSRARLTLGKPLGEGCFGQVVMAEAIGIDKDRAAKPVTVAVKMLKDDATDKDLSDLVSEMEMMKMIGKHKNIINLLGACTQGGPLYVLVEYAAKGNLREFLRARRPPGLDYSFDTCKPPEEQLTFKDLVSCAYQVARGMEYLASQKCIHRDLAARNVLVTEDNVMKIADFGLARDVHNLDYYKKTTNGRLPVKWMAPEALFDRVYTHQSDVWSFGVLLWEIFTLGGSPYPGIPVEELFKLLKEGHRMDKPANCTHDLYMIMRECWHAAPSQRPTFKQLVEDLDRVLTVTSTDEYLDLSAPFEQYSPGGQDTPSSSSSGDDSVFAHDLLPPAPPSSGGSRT

PLK2 [4] = target: T1, PLK2; experiment: Affinity analysis with biotinylated compound, streptavidin pull-down from U2OS lysates, anti-Plk2 Western blot; assay type: binding; conditions: FIG. 2
Protocol: Increasing concentrations of a biotinylated form of the compound were incubated with U2OS lysates. Streptavidin-conjugated agarose beads were utilized to pull down the biotinylated compound in complex with its interacting proteins.
Increasing concentrations of a biotinylated form of the compound were incubated for two hours with U2OS lysates (0.6 mg/ml) derived from the U2OS cell line. Streptavidin-conjugated agarose beads were utilized to pull down the biotinylated compound in complex with its interacting proteins. Pre-cleared streptavidin beads were added to each reaction mixture and incubated overnight at 4° C. The beads were washed and blotted with SDS-PAGE loading buffer and run on a 10% acrylamide denaturing gel. […] Western blotting was performed using an anti-Plk2 antibody.

PLK2 [5] = target: T1, PLK2; experiment: Kinase profiling; assay type: biochemical; conditions: 10 μM ATP
GRANTA-519 = experiment: Viable cell count GI50 (Table 4); assay type: cell-based; conditions: GRANTA-519, Mantle Cell Lymphoma; 96 h continuous treatment, trypan blue
Protocol: (§5) Cells (1×10^5) were plated into 6-well dishes and 24 h later test compound was added at five different concentrations over a 2 log dilution (1-100 μM). The total number of viable cells was determined after 96 h of continuous treatment by staining with trypan blue and counting the number of non-staining cells (viable) remaining in each well using a hemacytometer. The percentage of viable cells remaining was calculated as follows: # viable cells (compound treated)/# viable cells (DMSO treated)*100.

RAJI = experiment: Viable cell count GI50 (Table 4); assay type: cell-based; conditions: B-Cell, 96 h continuous treatment, trypan blue
Protocol: as §5

U2OS = experiment: Viable cell count GI50 (Table 4); assay type: cell-based; conditions: Osteosarcoma, 96 h continuous treatment, trypan blue
Protocol: as §5

BT474 = experiment: Viable cell count GI50 (Table 4); assay type: cell-based; conditions: BT474, Breast (Erbb2+); 96 h continuous treatment, trypan blue
Protocol: as §5

SK-MEL-28 = experiment: Viable cell count GI50 (Table 4); assay type: cell-based; conditions: SK-MEL-28, Melanoma; 96 h continuous treatment, trypan blue
Protocol: as §5

HELA = experiment: Viable cell count GI50 (Table 4); assay type: cell-based; conditions: Cervical, 96 h continuous treatment, trypan blue
Protocol: as §5

U87 = experiment: Viable cell count GI50 (Table 4); assay type: cell-based; conditions: U87, Glioblastoma; 96 h continuous treatment, trypan blue
Protocol: as §5

recombinant Plk4 = recombinant Plk4 (Homo sapiens (Human), UniProt O00444); experiment: Plk kinase inhibition assay (32P-ATP, casein); assay type: biochemical
Sequence of recombinant Plk4 (O00444 whole entry): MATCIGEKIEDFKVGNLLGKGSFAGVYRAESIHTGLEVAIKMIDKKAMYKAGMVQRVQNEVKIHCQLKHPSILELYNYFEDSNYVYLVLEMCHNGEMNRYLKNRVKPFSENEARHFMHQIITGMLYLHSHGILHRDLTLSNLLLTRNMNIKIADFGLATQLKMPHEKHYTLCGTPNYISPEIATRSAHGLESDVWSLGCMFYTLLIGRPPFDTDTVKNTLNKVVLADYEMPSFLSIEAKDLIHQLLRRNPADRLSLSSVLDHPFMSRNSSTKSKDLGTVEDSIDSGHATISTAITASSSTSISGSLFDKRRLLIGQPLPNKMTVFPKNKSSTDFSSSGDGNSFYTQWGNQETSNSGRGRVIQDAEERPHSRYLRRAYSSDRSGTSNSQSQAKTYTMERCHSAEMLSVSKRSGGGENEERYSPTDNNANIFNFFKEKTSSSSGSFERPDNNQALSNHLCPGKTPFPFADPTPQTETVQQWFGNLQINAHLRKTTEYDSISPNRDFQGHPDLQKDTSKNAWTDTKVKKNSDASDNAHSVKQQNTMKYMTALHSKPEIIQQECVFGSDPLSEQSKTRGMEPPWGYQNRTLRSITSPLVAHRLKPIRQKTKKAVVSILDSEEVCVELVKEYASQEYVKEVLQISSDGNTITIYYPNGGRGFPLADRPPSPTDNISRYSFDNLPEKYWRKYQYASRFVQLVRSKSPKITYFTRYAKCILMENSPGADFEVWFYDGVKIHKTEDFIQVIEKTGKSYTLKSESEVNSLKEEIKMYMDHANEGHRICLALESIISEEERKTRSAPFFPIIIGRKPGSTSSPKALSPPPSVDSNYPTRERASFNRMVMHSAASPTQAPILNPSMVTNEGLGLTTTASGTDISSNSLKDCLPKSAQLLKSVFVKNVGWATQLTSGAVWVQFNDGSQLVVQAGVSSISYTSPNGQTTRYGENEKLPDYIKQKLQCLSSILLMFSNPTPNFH
Protocol: as §4
as §4, with “Kinase” for “Ten ng of recombinant Plk1, Plk2, Plk3 or Plk4 kinase were incubated with the indicated concentrations of compound for 30 minutes at room temperature. Kinase”

tumor cells = experiment: Apoptosis induction in tumor cells; assay type: cell-based
U2OS osteosarcoma cells [6] = experiment: Induction of apoptosis in U2OS cells (Caspase Glo, Cell Titer Blue); assay type: cell-based; conditions: 24 hours, FIG. 3
Protocol: U2OS cells were treated with increasing concentrations of the compound for 24 hours. Cell viability was measured by incubating cells with Cell Titer Blue reagent at 37° C. for 3 hours under 5% CO2. Thereafter the cells were incubated with Caspase Glo reagent for 1 hour at room temperature to assay induction of Caspase 3/7 activity.
Cell viability was measured by incubating cells with Cell Titer Blue reagent (Promega) at 37° C. for 3 hours under 5% CO2. Thereafter the cells were incubated with Caspase Glo reagent (Promega) for 1 hour at room temperature to assay induction of Caspase 3/7 activity.

RSK1 = RSK1 (Homo sapiens (Human), UniProt Q15418); experiment: biochemical
Sequence of RSK1 (Q15418 whole entry): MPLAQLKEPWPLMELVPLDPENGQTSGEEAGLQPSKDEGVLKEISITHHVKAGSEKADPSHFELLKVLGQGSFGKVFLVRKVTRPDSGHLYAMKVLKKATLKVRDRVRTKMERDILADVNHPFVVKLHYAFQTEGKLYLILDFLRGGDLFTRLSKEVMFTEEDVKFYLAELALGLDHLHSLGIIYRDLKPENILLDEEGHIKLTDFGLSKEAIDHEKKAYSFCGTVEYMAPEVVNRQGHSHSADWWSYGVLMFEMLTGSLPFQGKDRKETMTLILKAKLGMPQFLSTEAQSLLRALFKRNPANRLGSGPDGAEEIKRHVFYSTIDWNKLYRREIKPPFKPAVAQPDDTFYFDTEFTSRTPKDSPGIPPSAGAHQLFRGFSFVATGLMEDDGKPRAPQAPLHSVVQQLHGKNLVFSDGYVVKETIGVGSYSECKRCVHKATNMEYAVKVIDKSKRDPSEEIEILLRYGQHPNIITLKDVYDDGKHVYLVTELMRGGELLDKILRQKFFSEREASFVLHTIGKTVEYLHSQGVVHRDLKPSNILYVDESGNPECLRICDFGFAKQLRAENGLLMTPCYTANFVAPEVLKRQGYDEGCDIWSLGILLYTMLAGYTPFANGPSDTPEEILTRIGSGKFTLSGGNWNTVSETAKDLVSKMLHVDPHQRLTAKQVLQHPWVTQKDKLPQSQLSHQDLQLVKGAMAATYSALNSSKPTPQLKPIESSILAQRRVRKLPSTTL

HFL = experiment: Viable cell count GI50 (Table 4); assay type: cell-based, human; conditions: Normal, 96 h continuous treatment, trypan blue
Protocol: as §5

U2OS osteosarcoma cells [7] = experiment: Spindle staining of U2OS cells (anti-alpha tubulin, fluorescent microscopy); assay type: cell-based; conditions: 1 uM, 24 hrs
Protocol: The cells were fixed in 4% paraformaldehyde and stained with anti-alpha tubulin antibodies conjugated with FITC followed by 5 μg/ml […] staining. The coverslips were visualized by fluorescent microscopy using an Olympus microscope at 100× magnification equipped with the Insight digital camera system.

[8] = 100 mg/kg intraperitoneally, monitored over 7 days

Question: With `Cn1c(=O)c(S(=O)(=O)c2ccc(F)cc2)cc2cnc(Nc3cnc4[nH]ccc4c3)nc21` [Example 12, 2-(1H-pyrrolo[2,3-b]pyridin-5-ylamino)-6-(4-fluorophenylsulfonyl)-8-methylpyrido[2,3-d]pyrimidin-7(8H)-one] as the compound, how does the IC50 (DU145 (prostate cancer)) read?
Answer: < 1000 nM

Question: What about the “killing of normal cells” value [1] of the same compound?
Answer: did not kill the normal cells

Question: What about the IC50 [2] of the same compound?
Answer: < 1000 nM

Question: What about the “killing of normal cells” value (HFL (human fibroblast)) of the same compound?
Answer: did not kill the normal cells

Question: What about the melting point of the same compound?
Answer: 274 to 280 °C

Question: Which “inhibitory activity against PLK-3” value (recombinant Plk3) does the source give for `COC[C@H]1OC(=O)c2coc3c2[C@@]1(C)C1=C(C3=O)[C@@H]2CCC(=O)[C@@]2(C)C[C@H]1OC(C)=O` [Wortmanin, wortmanin, reference compound] here?
Answer: nanomolar inhibitory activity

Question: And the “inhibitory activity against PLK-2” value (PLK2 [3])?
Answer: nanomolar inhibitory activity

Question: What about the “inhibitory activity against PLK-1” value (recombinant Plk1) of the same compound?
Answer: nanomolar inhibitory activity

Question: Which death of mice (CD-1 female mice; female, CD-1, mouse, in vivo, 7 days) does the source give for `CC[C@@H]1C(=O)N(C)c2cnc(Nc3ccc(C(=O)NC4CCN(C)CC4)cc3OC)nc2N1C1CCCC1` [BI-2536, reference compound] here?
Answer: two mice died within 24 hours while the third mouse died within 72 hours

Question: With Staurosporine as the compound, how does the IC50 (WNK2) read?
Answer: 8090 nM

Question: And the IC50 (PBK/TOPK)?
Answer: 433 nM

Question: For `Cn1c(=O)c(S(=O)(=O)c2ccc(F)cc2F)cc2cnc(Nc3ccc4[nH]ncc4c3)nc21` [Example 40, 2-(1H-indazol-5-ylamino)-6-(2,4-difluorophenylsulfonyl)-8-methylpyrido[2,3-d]pyrimidin-7(8H)-one], which IC50 (DU145 (prostate cancer)) is on record?
Answer: 10000 to 25000 nM

Question: What about the “killing of normal cells” value [1] of the same compound?
Answer: did not kill the normal cells

Question: What about the IC50 [2] of the same compound?
Answer: 10000 to 25000 nM

Question: And the “killing of normal cells” value (HFL (human fibroblast))?
Answer: did not kill the normal cells

Question: With `Cn1c(=O)c(S(=O)(=O)c2ccc(F)cc2F)cc2cnc(Nc3ccc4[nH]ccc4c3)nc21` [Example 39, 2-(1H-indol-5-ylamino)-6-(2,4-difluorophenylsulfonyl)-8-methylpyrido[2,3-d]pyrimidin-7(8H)-one] as the compound, how does the IC50 (FLT3 (D835Y)) read?
Answer: 8850 nM

Question: What about the IC50 (FGFR3) of the same compound?
Answer: 9000 nM

Question: And the “competition of Plk2 / compound-biotin interaction by free compound” value (PLK2 [4])?
Answer: readily competed out

Question: What about the IC50 (PLK2 [5]) of the same compound?
Answer: 201 nM

Question: And the signs of toxicity (CD-1 female mice; [8])?
Answer: No signs of toxicity

Question: And the survival of mice (CD-1 female mice; [8])?
Answer: 100%

Question: And the weight loss (CD-1 female mice; [8])?
Answer: No weight loss

Question: What about the survival of mice (CD-1 female mice; 200 mg/kg, for >10 days after injection) of the same compound?
Answer: 100%

Question: And the GI50 (GRANTA-519)?
Answer: 40 nM

Question: And the GI50 (RAJI)?
Answer: 50 nM

Question: What about the GI50 (U2OS) of the same compound?
Answer: 50 nM

Question: What about the GI50 (BT474) of the same compound?
Answer: 100 nM

Question: What about the GI50 (SK-MEL-28) of the same compound?
Answer: 200 nM

Question: And the GI50 (HELA)?
Answer: 50 nM

Question: What about the GI50 (U87) of the same compound?
Answer: 200 nM

Question: And the “inhibitory activity against PLK-3” value (recombinant Plk3)?
Answer: little or no inhibitory activity

Question: What about the “inhibitory activity against PLK-2” value (PLK2 [3]) of the same compound?
Answer: potent inhibitor

Question: And the “inhibitory activity against PLK-4” value (recombinant Plk4)?
Answer: little or no inhibitory activity

Question: And the “concentration inducing apoptosis in tumor cells” value (tumor cells)?
Answer: approximately 100 nM

Question: And the cell viability (U2OS osteosarcoma cells [6]; Cell Titer Blue)?
Answer: dose-dependent decrease in cell viability

Question: And the induction of apoptosis (U2OS osteosarcoma cells [6])?
Answer: induces apoptosis of U2OS osteosarcoma cells in a dose-dependent fashion

Question: What about the IC50 (RSK1) of the same compound?
Answer: 4250 nM

Question: And the GI50 (HFL)?
Answer: > 5000 nM

Question: What about the “treated cells mitotically arrested with multipolar spindles” value (U2OS osteosarcoma cells [7]) of the same compound?
Answer: greater than 95%

Question: And the “inhibitory activity against PLK-1” value (recombinant Plk1)?
Answer: little or no inhibitory activity

Question: What does the source list for `CN1CCN(c2ccc(Nc3ncc4cc(S(=O)(=O)c5ccc(Cl)cc5)c(=O)n(C5CCCCC5)c4n3)cc2)CC1` [Example 50, 2-(4-(4-methylpiperazin-1-yl)phenylamino)-6-(4-chlorophenylsulfonyl)-8-cyclohexylpyrido[2,3-d]pyrimidin-7(8H)-one]?
Answer: IC50 (DU145 (prostate cancer)): 1000 to 10000 nM; IC50 [2]: 1000 to 10000 nM; melting point: 259 to 260 °C

Question: Which results are given for `CC(C)(C)OC(=O)N1CCN(c2ccc(Nc3ncc4cc(S(=O)(=O)c5ccccc5)c(=O)n(C5CCCC5)c4n3)nc2)CC1` [Example 65, 2-(5-(4-tert-butoxycarbonylpiperazin-1-yl)pyridin-2-ylamino)-8-cyclopentyl-6-(phenylsulfonyl)pyrido[2,3-d]pyrimidin-7(8H)-one]?
Answer: IC50 (DU145 (prostate cancer)): > 100000 nM; IC50 [2]: 10000 to 25000 nM; melting point: 115 to 116 °C
